Experimental data taken from PubChem BioAssay (NCI).
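Dose response: 5 concentrations. Exposure: 48 h. Format: 96-well plates. Endpoint: linear interpolation; highest concentration if not reached. GI50 marks 50% less growth. Definition used: TGI = concentration required for complete inhibition of growth.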

How the values were obtained:
Assay in all cases: NCI-60 cell line screen, 48 h
[1] = tested on: MOLT-4 leukemia
[2] = tested on: NCI-H226 lung
[3] = tested on: OVCAR-4 ovarian
[4] = tested on: OVCAR-5 ovarian
[5] = tested on: SK-MEL-28 melanoma
[6] = tested on: SNB-19 CNS
[7] = tested on: SW-620 colon
[8] = tested on: UACC-257 melanoma
[9] = tested on: MCF7 breast
[10] = tested on: MDA-MB-231 breast

Row | Compound | TGI [1] [µM] | TGI [2] [µM] | TGI [3] [µM] | TGI [4] [µM] | TGI [5] [µM] | TGI [6] [µM] | TGI [7] [µM] | TGI [8] [µM] | TGI [9] [µM] | TGI [10] [µM] | GI50 [9] [µM] | GI50 [10] [µM] | GI50 [1] [µM] | GI50 [2] [µM] | GI50 [3] [µM] | GI50 [4] [µM] | GI50 [5] [µM] | GI50 [6] [µM] | GI50 [7] [µM] | GI50 [8] [µM]
1 | CC1CC2=C(S(=O)(=O)c3ccccc3)CC(S(=O)(=O)c3ccccc3)(S(=O)(=O)c3ccccc3)CC21 (stereo not drawn) | > 100 | > 100 | > 100 | > 100 | > 100 | > 100 | > 100 | > 100 |  |  |  |  |  |  |  |  |  |  |  | 
2 | CCOP(=O)(OCC)C(c1ccc(F)cc1)N(C(=O)NC(F)(F)F)c1cccc(C(F)(F)F)c1 (stereo not drawn) | > 100 | > 100 | > 100 | > 100 | > 100 | > 100 | > 100 | > 100 | > 100 | > 100 |  |  |  |  |  |  |  |  |  | 
3 | COc1ccccc1CNCCCN1C(=O)c2ccc3c4c(ccc(c24)C1=O)C(=O)N(CCCNCCNCCCN)C3=O | 5.81 | 21.3 | 1.68 | 19.8 | 9.66 | 11.8 | 8.91 | 7.96 | 2.22 | > 100 | 0.422 | 2.09 | 1.73 | 2.99 | 0.466 | 5.24 | 3.03 | 2.18 | 1.74 | 2.53
4 | COc1cc2oc(-c3ccc(O)cc3)c(OC)c(=O)c2c(O)c1OC | > 100 | > 100 | > 100 | > 100 | > 100 | > 100 | > 100 | > 100 | > 100 |  | 51.4 |  | 27.4 | 45.7 | 99.2 | > 100 | > 100 | > 100 | > 100 | > 100
5 | C/C(=N/NC(N)=S)c1ccc[nH]1 | > 100 | > 100 | > 100 | > 100 | > 100 | > 100 | > 100 | > 100 | > 100 | > 100 |  |  |  |  |  |  |  |  |  | 
6 | CCOC(=O)CNC(=O)N(CC)C12CC3CC(CC(C3)C1)C2 | 322 | 371 | 536 | 369 | 560 | 430 | 297 | 322 | 444 |  |  |  |  |  |  |  |  |  |  | 
7 | C[C@@H]1Nc2cc(NC(=O)OCCF)nc(N)c2N=C1c1ccccc1 | < 0.0001 |  | > 100 | > 100 | > 100 |  | > 100 | > 100 | > 100 |  | < 0.0001 |  |  | < 0.0001 | > 100 |  |  | < 0.0001 |  | 
8 | COc1ccc(S(=O)(=O)c2ccccc2[N+](=O)[O-])cc1 | > 100 | > 100 | > 100 | > 100 | > 100 | > 100 | > 100 | > 100 |  |  |  |  |  |  |  |  |  |  |  | 
9 | COCc1nc2c(OC)c(-c3nc4nc(N5CCN(C)CC5)ccc4[nH]3)cc(OC)c2n1C | 49.6 | 87.4 | > 100 | > 100 | 56 | > 100 | > 100 | 36.4 |  | 46.4 |  |  |  |  |  |  |  |  |  | 
10 | Clc1ccc(C[P+](c2ccccc2)(c2ccccc2)c2ccccc2)c(Cl)c1 | 18.1 | 7.77 | 35.6 | 18.9 | 20.1 | 13 | 21.4 | 7.64 |  |  |  |  |  |  |  |  |  |  |  | 
11 | CCOC(=O)c1ccc(N[C@@H]2c3cc4c(cc3C(c3cc(OC)c(O)c(OC)c3)[C@H]3C(=O)OCC32)OCO4)cc1O (stereo partly drawn) | 1.21 | 2.39 | > 100 | > 100 | 42 | > 25.9 | > 48.2 | > 100 | > 79.3 |  |  |  |  |  |  |  |  |  |  | 
12 | CCOC(=O)Cn1c(=O)ccn(COCCO)c1=O | > 100 |  | > 100 | > 100 | > 100 | > 100 | > 100 | > 100 | > 100 | > 100 |  |  |  |  |  |  |  |  |  | 
13 | COCCCNc1nc(N)c(C#N)c(C#N)c1C#N | > 10 | > 10 | > 10 | > 10 | > 10 | > 10 | > 10 |  | > 10 | > 10 |  |  |  |  |  |  |  |  |  | 
